Assay results as given in paper PMC11988454, “Discovery of synthetic small molecules targeting the central regulator of Salmonella pathogenicity” (Science Advances, 2025).
pIC50: −log10 of the molar value.

Key:
HilD dimer = molecular target: T1, HilD dimer (Salmonella typhimurium, UniProt P0CL08); experiment: BS3 cross-linking of HilD; format: biochemical, S. Typhimurium; conditions: oleic acid 50 and 100 μM; C26 up to 200 μM
T1 construct: His6-SUMO (N, cleaved yes); made in house; host or cells: E. coli C41(DE3)
Protocol: BS^3 cross-linking of HilD was performed as previously described ([39]). In summary, HilD (10 μM) was first incubated with C26 or oleic acid in SEC buffer for 20 min at r.t., with a final DMSO concentration of 1% (v/v). HilD was then cross-linked by incubation with 0.2 mM BS^3 (Thermo Fisher Scientific, Pierce, A39266) at r.t. for 1 hour, before the reaction was quenched by the addition of 50 mM Tris (pH 7.5). Samples were analyzed using SDS-PAGE and visualized by silver staining.

[1] = system: T3SS-1 (SipA-HiBiT injection into HeLa cells); experiment: SipA-HiBiT injection assay (split NanoLuc HiBiT/LgBiT); format: cell-based, S. Typhimurium
Protocol: SipA injection assay was performed using the split-Nanoluc (HiBiT/LgBiT) system as described previously ([37], [38]). In brief, NanoLuc is split into two parts: LgBiT, comprising 10 of the 11 β strands of the luciferase, and HiBiT, a short peptide with high affinity to LgBiT, contributing the missing β strand to make a functional luciferase. S. Typhimurium strains expressing SipA-HiBiT were grown in LB supplemented with 0.3 M NaCl and either compound at different concentrations or 1% (v/v) DMSO. Cultures were incubated at 37°C with shaking at 180 rpm until an OD600 of 0.9 was reached. Bacteria were then pelleted and washed twice with Hanks’ balanced salt solution (HBSS). The bacterial suspension was diluted to obtain a multiplicity of infection (MOI) of 50 and then used to infect the LgBiT-expressing HeLa cell. Luminescence was measured using a Tecan Sparc Multimode reader.

HilC = molecular target: T2, HilC (Salmonella typhimurium, UniProt E1WAB2); experiment: EMSA, binding to hilA promoter, HilC; format: biochemical, S. Typhimurium
T2 construct: His6 followed by TEV protease cleavage site (N, cleaved yes); made in house; host or cells: E. coli C41(DE3)
Protocol: EMSAs were performed similarly to as described previously ([39]) using a 62–base pair double-stranded (dsDNA) fragment of the hilA promoter, encompassing the A1 binding site ([82]). dsDNA fragments were generated by melting the complementary primers PhilA_A1_f / PhilA_A1_r (table S10) together in TE buffer [10 mM Tris (pH 8.0) and 1 mM EDTA] at 95°C for 10 min before slowly cooling to r.t. The forward primer was modified with a 5′-Cy5 fluorescent dye for detection. The protein (600 nM) was incubated with 50 nM labeled DNA in EMSA buffer [20 mM Tris (pH 8.0), 100 mM KCl, 100 μM EDTA, and 3% glycerol]. C26 was diluted first in DMSO and subsequently 1:100 into the protein-DNA sample. Samples were incubated at 37°C for 15 min, supplemented with diluted DNA loading dye, and separated on a 1.5-mm-thick, 6% (w/v) TBE polyacrylamide gel at 6°C at a constant voltage of 100 V. Gels were imaged using a ChemiDocMP imaging system (Bio-Rad).

HilD = molecular target: T3, HilD (Salmonella typhimurium, UniProt P0CL08); experiment: SEC-MALS of HilD; parameters: species or system S. Typhimurium
T3 construct: His6-SUMO (N, cleaved yes); made in house; host or cells: E. coli C41(DE3)
Protocol: SEC-MALS experiments were performed using a Superdex 75 Increase 10/300 GL column (Cytiva) coupled to a miniDAWN Tristar Laser photometer (Wyatt) and a RI-2031 differential refractometer (JASCO). HilD (100 μM) was incubated with 1% (v/v) of either DMSO or C26 (10 mM dissolved in DMSO) for 20 min at r.t. Fifty microliters of HilD samples was loaded onto the SEC column, equilibrated with SEC buffer, and separated using a flow rate of 0.5 ml min^−1. Data analysis was carried out with the ASTRA v7.3.0.18 software (Wyatt).

T3SS-1 (SipA secretion) = experiment: SipA-NLuc secretion assay (NanoLuc luciferase); format: cell-based, S. Typhimurium; conditions: Salmonella enterica, read-out: IC50 SipA secretion
Protocol: (A) NanoLuc Luciferase assay to screen T3SS-1 inhibitors in 384-well plates. Compounds were screened at a final concentration of 100 μM (N = 3 replicates). Cultures with strains sipA-NLuc and ΔinvA, sipA-NLuc with 1% (v/v) DMSO were used as positive and negative controls, respectively. […] 100% relative SipA secretion corresponds to the luminescence intensity of the WT strain grown in the presence of 1% (v/v) DMSO. The relative SipA secretion of the ∆invA mutant was considered as the bottom (N = 2 technical replicates within N = 3 biological replicates).
For compound screening, 50 μl of overnight cultures of Salmonella with an approximate optical density at 600 nm (OD600) of 2 were diluted in fresh LB medium to an OD600 of 0.05 and added to 384-well plates (Nunc MaxiSorp, white) containing 5 nmol of screening compound per well, for a final compound concentration of 100 μM. The plates were incubated for 5 hours at 37°C with shaking at 180 rpm, upon which the bacteria were removed. The plates were washed with phosphate-buffered saline (PBS) [137 mM NaCl, 2.7 mM KCl, 10 mM Na2HPO4, and 1.8 mM KH2PO4 (pH 7.4)] using a Tecan HydroSpeed plate washer. Residual PBS after washing was removed, and 50 μl of NanoLuc working solution (NanoGlo, Promega) was added to the wells. Luminescence was then measured using a Tecan Sparc Multimode reader. […]

[2] = system: S. Typhimurium invasion of HeLa cells; experiment: Invasion assay into HeLa cells; format: cell-based; conditions: C26 100 μM, MOI 20
Protocol: In a white 24-well plate (NUNC), 10^5 HeLa cells were seeded in 350 μl of DMEM (Gibco), 24 hours before the infection. Bacteria were grown in LB supplemented with 0.3 M NaCl and either compound at different concentrations or 1% (v/v) DMSO, at 37°C with shaking at 180 rpm until an OD600 of 0.9 was reached. Bacteria were then pelleted and washed twice with HBSS. The bacterial suspension was diluted to obtain an MOI of 20 to infect HeLa cells. The plate was centrifuged for 5 min at 300g to synchronize the infection and then incubated for 25 min at 37°C and 5% (v/v) CO2 to allow Salmonella invasion into HeLa cells. To quantify the invasiveness, the cells were first washed three times with 500 μl of prewarmed PBS. The remaining extracellular bacteria were killed with 500 μl of DMEM supplemented with gentamicin (100 μg/ml). HeLa cells were incubated for 1 hour and then washed three times with prewarmed PBS and lysed with 500 μl of 0.5% (v/v) SDS in PBS for 5 min at 37°C on a shaking platform. The lysate was serial diluted in PBS-T [PBS with 0.05% (v/v) Tween 20] to determine the colony-forming units (CFUs) by plating on LB medium supplemented with streptomycin (50 μg/ml).

[3] = system: T3SS-1 proteins SipA, SctE (SipB), SctP (InvJ); T1SS protein SiiF; experiment: Western blotting of secreted and whole-cell proteins; format: cell-based, S. Typhimurium; conditions: Western blot
Protocol: Western blot analysis to quantify secreted and nonsecreted proteins was carried out as previously described ([66]). After a 5-hour culture under SPI-1–inducing conditions, cultures were centrifuged at 10,000g for 2 min at 4°C to separate cell pellets for the quantification of target proteins in whole cells, and the supernatant for the quantification of secreted proteins. The supernatants were first filtered with a 0.22-μm pore size filter. Sodium deoxycholic acid was then added to a final concentration of 0.1% (w/v) followed by a protein precipitation with 10% trichloroacetic acid (v/v) for 30 min at 4°C. The samples were pelleted by centrifugation at 20,000g for 20 min at 4°C to retrieve precipitated proteins, which were lastly washed with acetone before resuspension in SDS–polyacrylamide gel electrophoresis (PAGE) loading buffer. Whole-cell samples were directly resuspended in SDS-PAGE loading buffer.

T3 sequence (P0CL08 whole entry): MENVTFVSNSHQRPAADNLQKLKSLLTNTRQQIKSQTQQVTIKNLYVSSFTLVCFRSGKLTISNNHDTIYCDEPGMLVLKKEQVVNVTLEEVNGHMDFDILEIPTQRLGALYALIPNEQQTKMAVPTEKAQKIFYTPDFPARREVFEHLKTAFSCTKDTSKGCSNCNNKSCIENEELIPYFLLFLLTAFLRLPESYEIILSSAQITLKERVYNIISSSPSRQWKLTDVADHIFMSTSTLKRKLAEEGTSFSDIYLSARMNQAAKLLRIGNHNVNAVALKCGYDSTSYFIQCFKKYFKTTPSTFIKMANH
T2 sequence (E1WAB2 whole entry): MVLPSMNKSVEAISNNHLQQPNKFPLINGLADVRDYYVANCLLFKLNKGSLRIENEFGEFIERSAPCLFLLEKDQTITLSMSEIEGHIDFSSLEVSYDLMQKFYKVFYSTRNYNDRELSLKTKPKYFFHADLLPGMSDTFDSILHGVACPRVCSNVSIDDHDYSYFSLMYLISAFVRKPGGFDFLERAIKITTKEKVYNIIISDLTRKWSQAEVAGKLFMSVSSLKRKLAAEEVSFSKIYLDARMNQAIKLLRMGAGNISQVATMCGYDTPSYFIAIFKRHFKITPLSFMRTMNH
T1 sequence (P0CL08 whole entry): as the sequence (P0CL08 whole entry) above

CN(CC(=O)NCc1ccc2c(c1)OCO2)Cc1ccc(Br)s1 [C26, N-(benzo[d][1,3]dioxol-5-ylmethyl)-2-{[(5-bromothiophen-2-yl)methyl](methyl)amino}acetamide]
levels of cross-linked HilD dimer (HilD dimer): did not affect the levels of cross-linking
residual SipA injection ([1]; C26 100 μM added to bacterial culture, 1 hour postinfection, MOI 50): 11%
SipA injection, % of the untreated bacteria ([1]; C26 100 μM only in infection inoculum, 1 hour postinfection, MOI 50): 48%
SipA injection into HeLa cells over a 5-hour infection time ([1]; C26 added to bacterial culture): dose-dependent decrease
DNA binding activity of HilC (hilA promoter) (HilC): no effect
Molecular Mass of HilD, Measured (HilD; HilD + C26 100 μM, theoretical dimer 70.4): 69.8 kDa
oligomerization state of HilD (HilD; equimolar C26 (100 μM)): no effect on the oligomerization state
pIC50 (T3SS-1 (SipA secretion)): 4.53
invasiveness of HilDY46A mutant into HeLa cells [2]: unaffected
Invasion of HeLa cells (%), of the original inoculum ([2]; DMSO control 11.75): 3.5%
SipA, SctE and SctP secretion into the culture supernatant [3]: reduced in a dose-dependent manner
expression of SipA, SctE and SctP in whole cells [3]: blocked the expression
expression of SiiF ([3]; FLAG-tagged SiiF): dose-dependent reduction
